Laboratory results as given in patent publication US20230141887A1, “CRYSTAL FORM OF DIAZASPIROPYRAN COMPOUND” (MEDSHINE DISCOVERY INC., priority 2020, published 2023).

Columns and labels:
FLT3(ITD) = biological target: T1, FLT3(ITD) (Homo sapiens, UniProt P36888); format: binding
T1 construct: fused on or other part: DNA tag for the qPCR read-out (the KINOMEscan format)
T1 sequence (P36888 1-993): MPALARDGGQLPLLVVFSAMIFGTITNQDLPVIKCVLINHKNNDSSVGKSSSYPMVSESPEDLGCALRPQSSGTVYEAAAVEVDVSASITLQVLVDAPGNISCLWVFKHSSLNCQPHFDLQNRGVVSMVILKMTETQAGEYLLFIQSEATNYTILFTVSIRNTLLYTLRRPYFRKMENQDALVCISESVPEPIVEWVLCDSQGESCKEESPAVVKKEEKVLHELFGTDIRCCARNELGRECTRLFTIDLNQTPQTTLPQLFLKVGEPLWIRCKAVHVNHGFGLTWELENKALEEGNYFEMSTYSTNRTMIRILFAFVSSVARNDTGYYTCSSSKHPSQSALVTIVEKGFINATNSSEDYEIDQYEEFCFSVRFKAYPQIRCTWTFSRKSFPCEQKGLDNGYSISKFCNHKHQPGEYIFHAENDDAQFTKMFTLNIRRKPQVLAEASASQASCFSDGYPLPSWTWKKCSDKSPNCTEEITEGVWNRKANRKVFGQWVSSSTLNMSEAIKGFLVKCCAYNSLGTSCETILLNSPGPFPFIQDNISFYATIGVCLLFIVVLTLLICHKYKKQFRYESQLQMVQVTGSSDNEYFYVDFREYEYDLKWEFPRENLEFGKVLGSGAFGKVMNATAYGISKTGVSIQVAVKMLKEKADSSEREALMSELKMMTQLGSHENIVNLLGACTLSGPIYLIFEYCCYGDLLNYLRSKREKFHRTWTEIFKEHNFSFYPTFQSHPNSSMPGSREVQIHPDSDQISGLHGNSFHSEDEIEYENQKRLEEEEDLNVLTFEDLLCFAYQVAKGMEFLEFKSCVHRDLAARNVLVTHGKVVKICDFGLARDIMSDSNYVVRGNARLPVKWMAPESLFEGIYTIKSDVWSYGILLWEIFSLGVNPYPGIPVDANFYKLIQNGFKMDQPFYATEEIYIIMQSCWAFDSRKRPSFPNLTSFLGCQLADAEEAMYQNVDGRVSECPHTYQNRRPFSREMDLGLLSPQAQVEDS
Protocol: (§1) The assay was carried out using KINOMEscan™ technology. The assay compounds were stored in 100% DMSO. The assay was carried out by means of 3-fold dilution and 11-point fitting. All compounds used for Kd determination were dispersed by ultrasound, then directly diluted and tested. All reactions were carried out in a 384-well polypropylene plate. Each portion has a final volume of 0.02 ml. The plate was incubated with shaking at room temperature for 1 hour, and then processed. The kinase concentration in the eluent was finally determined by qPCR method. Kd was obtained by fitting.

FLT3(D835Y) = biological target: T2, FLT3(D835Y) (Homo sapiens, UniProt P36888, D835Y); format: binding
T2 sequence (P36888 27-993 D835Y): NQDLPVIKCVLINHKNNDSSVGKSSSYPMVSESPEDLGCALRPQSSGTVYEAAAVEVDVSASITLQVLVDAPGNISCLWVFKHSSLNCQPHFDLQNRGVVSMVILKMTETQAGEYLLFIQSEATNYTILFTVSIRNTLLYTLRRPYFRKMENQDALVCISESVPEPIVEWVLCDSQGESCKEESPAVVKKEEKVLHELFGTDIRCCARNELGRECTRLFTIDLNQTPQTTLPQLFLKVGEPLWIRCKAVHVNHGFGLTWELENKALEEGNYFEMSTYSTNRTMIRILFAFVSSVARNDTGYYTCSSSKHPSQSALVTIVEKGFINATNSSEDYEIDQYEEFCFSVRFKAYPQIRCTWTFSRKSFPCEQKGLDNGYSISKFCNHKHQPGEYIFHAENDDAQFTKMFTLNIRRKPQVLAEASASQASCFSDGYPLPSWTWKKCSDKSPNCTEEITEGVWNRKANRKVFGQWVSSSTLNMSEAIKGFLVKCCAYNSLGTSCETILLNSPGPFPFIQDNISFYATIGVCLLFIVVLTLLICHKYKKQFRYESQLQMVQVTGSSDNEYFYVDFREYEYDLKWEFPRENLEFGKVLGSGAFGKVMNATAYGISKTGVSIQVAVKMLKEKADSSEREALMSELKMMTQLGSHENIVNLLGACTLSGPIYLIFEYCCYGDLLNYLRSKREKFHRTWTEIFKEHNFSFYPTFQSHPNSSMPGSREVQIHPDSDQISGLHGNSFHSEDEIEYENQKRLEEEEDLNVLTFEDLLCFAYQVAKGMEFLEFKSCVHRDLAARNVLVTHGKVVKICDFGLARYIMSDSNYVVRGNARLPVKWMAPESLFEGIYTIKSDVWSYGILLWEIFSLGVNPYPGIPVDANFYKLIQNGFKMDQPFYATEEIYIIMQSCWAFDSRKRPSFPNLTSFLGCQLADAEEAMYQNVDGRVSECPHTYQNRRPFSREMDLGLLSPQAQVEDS
Protocol: as §1

SMILES: CCc1nc(C(N)=O)c(Nc2ccc(N3CCC4(CCN(C)CC4)CC3)c(C)c2)nc1NC1CCOCC1.O=C(O)C(F)(F)F
- Kd (FLT3(ITD)): 3.6 nM
- Kd (FLT3(D835Y)): 1.4 nM
